Laboratory results as given in patent US8268818B2, “Inhibitors of C-MET and uses thereof” (Vertex Pharmaceuticals Incorporated, priority 2006, dated 2012).

The molecules below were run against PI3Kγ (Homo sapiens, UniProt P48736) (assay: PI3K inhibition assay, Protocol B (33P-ATP, glass fiber filter plate)). Conditions: not given.
Assay type: biochemical
Method: Compounds were screened for their ability to inhibit PI3Kγ using one of the assays below.
To each well of a 96 well polystyrene plate [Corning Costar Item No. 3795], 61 μL of Reaction Mix [55 mM HEPES pH 7.5, 11 mM MgCl2, 27 mM NaCl, 5.5 mM DTT, 0.11 mg/mL BSA, 51 μM phosphatidylinositol(4,5)bisphosphate diC16 (PI(4,5)P2; Avanti Polar Lipids, Cat. No. 840046P) and 18 nM PI3Kγ] was added. Separately, ten 2.5-fold serial dilutions of compounds of the invention were prepared in 100% DMSO with the last two wells reserved for no inhibitor controls (enzyme+no compound and no enzyme control+no compound). 1 μL it of compound or DMSO alone was added by 12-channel hand pipet and incubated for 10 minutes at room temperature (25° C.). To initiate the reaction, 5 μl of ATP Mix [49 mM HEPES pH 7.5 and 1340 ^33P-ATP was added and allowed to incubate for 30 min. at 25° C. Final concentrations of the reaction were 50 mM HEPES 7.5, 10 mM MgCl2, 25 mM NaCl, 5 mM DTT, 0.1 mg/mL BSA, 46 μM PI(4,5)P2, 16.6 nM PI3Kγ, and 100 μM ATP. Final inhibitor concentrations ranged from 10 μM to 1 nM.
After incubation, 60 μL of the reaction was quenched by transferring to 504 of 20% TCA/Water in each well of a 96 well glass fiber filter plate [Millipore Cat. No. MAFBN0B50]. The plate was dried by vacuum and then washed five times in a Bio-Tek Instruments ELX-405 Auto Plate Washer with 150 μL of 5% TCA/Water. 50 μL of scintillation fluid was added to each well and the plate was read immediately on a Perkin-Elmer TopCount™ NXT liquid scintillation counter.
Inhibition data was background subtracted (no enzyme control+no inhibitor control) and fit to the competitive tight binding Ki equation described by Morrison and Stone. [J. F. Morrison and S. R. Stone, Comments Mol. Cell. Biophys. 2 (1985) 347-368].

Sequence of PI3Kγ (P48736 whole entry, species assumed): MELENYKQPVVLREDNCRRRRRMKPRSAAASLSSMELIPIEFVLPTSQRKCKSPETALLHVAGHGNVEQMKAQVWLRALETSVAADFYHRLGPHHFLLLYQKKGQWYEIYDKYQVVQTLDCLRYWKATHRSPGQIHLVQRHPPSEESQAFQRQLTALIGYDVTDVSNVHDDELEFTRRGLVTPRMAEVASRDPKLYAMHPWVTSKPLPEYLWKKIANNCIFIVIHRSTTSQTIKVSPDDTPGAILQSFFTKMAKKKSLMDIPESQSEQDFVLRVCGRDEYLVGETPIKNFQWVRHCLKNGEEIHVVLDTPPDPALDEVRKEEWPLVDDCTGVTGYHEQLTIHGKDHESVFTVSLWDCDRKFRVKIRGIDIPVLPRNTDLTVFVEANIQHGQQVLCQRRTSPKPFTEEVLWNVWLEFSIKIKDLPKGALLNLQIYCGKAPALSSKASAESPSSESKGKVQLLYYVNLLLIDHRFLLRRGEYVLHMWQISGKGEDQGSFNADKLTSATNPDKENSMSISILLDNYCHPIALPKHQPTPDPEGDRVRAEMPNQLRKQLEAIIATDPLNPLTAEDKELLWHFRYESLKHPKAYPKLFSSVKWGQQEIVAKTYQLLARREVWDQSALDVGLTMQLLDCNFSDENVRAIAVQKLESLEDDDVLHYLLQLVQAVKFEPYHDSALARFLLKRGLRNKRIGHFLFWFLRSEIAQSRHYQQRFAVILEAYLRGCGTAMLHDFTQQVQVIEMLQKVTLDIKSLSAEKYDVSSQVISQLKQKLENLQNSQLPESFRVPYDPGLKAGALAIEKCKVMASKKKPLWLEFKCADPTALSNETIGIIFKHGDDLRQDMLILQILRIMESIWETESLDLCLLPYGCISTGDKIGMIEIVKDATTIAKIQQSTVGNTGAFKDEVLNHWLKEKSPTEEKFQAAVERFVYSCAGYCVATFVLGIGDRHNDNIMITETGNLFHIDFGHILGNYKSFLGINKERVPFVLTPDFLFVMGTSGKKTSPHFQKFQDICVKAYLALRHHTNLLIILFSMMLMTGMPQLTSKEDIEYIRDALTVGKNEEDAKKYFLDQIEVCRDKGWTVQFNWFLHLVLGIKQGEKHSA

Structure (SMILES) | Ki [nM]
CC(=O)Nc1nc(C)c(-c2ccc(C(=O)N3CCC(C#N)(c4ccccc4)CC3)o2)s1 [Compound 16] | 100 to 1000

Same assay, conditions: Protocol B; 100 μM ATP, 46 μM PI(4,5)P2 diC16, 16.6 nM PI3Kγ; average if more than one result; read-out: PI3Kγ enzyme inhibition Ki

Structure (SMILES) | Ki [nM]
CC(=O)Nc1nc(C)c(-c2ccc(C(=O)N(C)Cc3ccco3)o2)s1 [Compound 2] | 100 to 1000
CC(=O)Nc1nc(C)c(-c2ccc(C(=O)NCc3cc(Cl)cc(Cl)c3)o2)s1 [Compound 3] | 1000 to 5000
CC(=O)Nc1nc(C)c(-c2ccc(C(=O)N3CCCC3c3cccc(Br)c3)o2)s1 (stereo not drawn) [Compound 4] | 1000 to 5000
CC(=O)Nc1nc(C)c(-c2ccc(C(=O)N3CCSCC3)o2)s1 [Compound 5] | 100 to 1000
CC(=O)Nc1nc(C)c(-c2ccc(C(=O)N3CCCC(C)C3)o2)s1 (stereo not drawn) [Compound 6] | 100 to 1000
CC(=O)Nc1nc(C)c(-c2ccc(C(=O)N3CCN(C)CC3)o2)s1 [Compound 7] | 1000 to 5000
CC(=O)Nc1nc(C)c(-c2ccc(C(=O)N3CCN(Cc4ccccc4)CC3)o2)s1 [Compound 8] | 100 to 1000
CC(=O)Nc1nc(C)c(-c2ccc(C(=O)NCCC#N)o2)s1 [Compound 9] | 100 to 1000
CC(=O)Nc1nc(C)c(-c2ccc(C(=O)N[C@@H](CO)c3ccccc3)o2)s1 [Compound 10, (R)-5-(2-acetamido-4-methylthiazol-5-yl)-N-(2-hydroxy-1-phenylethyl)furan-2-carboxamide] | 100 to 1000
CC(=O)Nc1nc(C)c(-c2ccc(C(=O)N3CCCCC3)o2)s1 [Compound 11] | 100 to 1000
CC(=O)Nc1nc(C)c(-c2ccc(C(=O)NC3(CO)CCCC3)o2)s1 [Compound 12] | 100 to 1000
CC(=O)Nc1nc(C)c(-c2ccc(C(=O)N3CCCC(c4ccc(F)cc4)C3)o2)s1 (stereo not drawn) [Compound 13] | 100 to 1000
CC(=O)Nc1nc(C)c(-c2ccc(C(=O)N3CCC(O)C3)o2)s1 (stereo not drawn) [Compound 14] | 100 to 1000
CC(=O)Nc1nc(C)c(-c2ccc(C(=O)N3CCC(N4CCCC4)CC3)o2)s1 [Compound 15] | 1000 to 5000
CC(=O)Nc1nc(C)c(-c2ccc(C(=O)N3CCCC(O)C3)o2)s1 (stereo not drawn) [Compound 17] | 100 to 1000
CC(=O)Nc1nc(C)c(-c2ccc(C(=O)NCc3c(Cl)cccc3Cl)o2)s1 [Compound 18] | 100 to 1000
CC(=O)Nc1nc(C)c(-c2ccc(S(N)(=O)=O)o2)s1 [Compound 19] | < 100
CNS(=O)(=O)c1ccc(-c2sc(NC(C)=O)nc2C)o1 [Compound 20] | < 100
CC(=O)Nc1nc(C)c(-c2ccc(S(=O)(=O)N(C)C)o2)s1 [Compound 21] | < 100
CC(=O)Nc1nc(C)c(-c2ccc(S(=O)(=O)NCCO)o2)s1 [Compound 22] | < 100

Structure (SMILES) | Ki [nM]
COCCNS(=O)(=O)c1ccc(-c2sc(NC(C)=O)nc2C)o1 [Compound 23] | < 100
CC(=O)Nc1nc(C)c(-c2ccc(S(=O)(=O)N(C)CCO)o2)s1 [Compound 24] | < 100
CC(=O)Nc1nc(C)c(-c2ccc(S(=O)(=O)NCC(C)C)o2)s1 [Compound 25] | < 100
CC(=O)Nc1nc(C)c(-c2ccc(S(=O)(=O)NCCC#N)o2)s1 [Compound 26] | < 100
CC(=O)NCCNS(=O)(=O)c1ccc(-c2sc(NC(C)=O)nc2C)o1 [Compound 27] | < 100
CC(=O)Nc1nc(C)c(-c2ccc(S(=O)(=O)NC3CC3)o2)s1 [Compound 28] | < 100
CC(=O)Nc1nc(C)c(-c2ccc(S(=O)(=O)NC3CCCC3)o2)s1 [Compound 29] | < 100
CC(=O)Nc1nc(C)c(-c2ccc(S(=O)(=O)N3CCCCC3)o2)s1 [Compound 30] | < 100
CC(=O)Nc1nc(C)c(-c2ccc(S(=O)(=O)N3CCN(C)CC3)o2)s1 [Compound 31] | < 100
CC(=O)Nc1nc(C)c(-c2ccc(S(=O)(=O)N3CC(C)OC(C)C3)o2)s1 (stereo not drawn) [Compound 32] | < 100
CC(=O)Nc1nc(C)c(-c2ccc(S(=O)(=O)Nc3ccccc3)o2)s1 [Compound 33] | < 100
CC(=O)Nc1nc(C)c(-c2ccc(S(=O)(=O)NCc3ccccc3)o2)s1 [Compound 34] | < 100
CC(=O)Nc1nc(C)c(-c2ccc(S(=O)(=O)N3CCN(Cc4ccccc4)CC3)o2)s1 [Compound 35] | < 100
CC(=O)Nc1nc(C)c(-c2ccc(S(=O)(=O)NCc3cccc(F)c3)o2)s1 [Compound 36] | < 100
CC(=O)Nc1nc(C)c(-c2ccc(S(=O)(=O)NCc3cccc(Cl)c3)o2)s1 [Compound 37] | < 100
CC(=O)Nc1nc(C)c(-c2ccc(S(=O)(=O)NCc3cccc(Br)c3)o2)s1 [Compound 38] | < 100
CC(=O)Nc1nc(C)c(-c2ccc(S(=O)(=O)NCc3cccc(I)c3)o2)s1 [Compound 39] | < 100
CC(=O)Nc1nc(C)c(-c2ccc(S(=O)(=O)NCc3cccc([N+](=O)[O-])c3)o2)s1 [Compound 40] | < 100
CC(=O)Nc1nc(C)c(-c2ccc(S(=O)(=O)NCc3cccc(O)c3)o2)s1 [Compound 41] | < 100
CC(=O)Nc1nc(C)c(-c2ccc(S(=O)(=O)NCc3cccc(C(F)(F)F)c3)o2)s1 [Compound 42] | < 100

Structure (SMILES) | Ki [nM]
CC(=O)Nc1nc(C)c(-c2ccc(S(=O)(=O)NCc3cccc(OC(F)(F)F)c3)o2)s1 [Compound 43] | 100 to 1000
CC(=O)Nc1nc(C)c(-c2ccc(S(=O)(=O)NCc3cc(Cl)cc(Cl)c3)o2)s1 [Compound 44] | 100 to 1000
COc1cc(CNS(=O)(=O)c2ccc(-c3sc(NC(C)=O)nc3C)o2)cc(OC)c1 [Compound 45] | 100 to 1000
CC(=O)Nc1nc(C)c(-c2ccc(S(=O)(=O)NCc3cc(F)cc(F)c3)o2)s1 [Compound 46] | < 100
CC(=O)Nc1nc(C)c(-c2ccc(S(=O)(=O)NCc3cccc(NS(C)(=O)=O)c3)o2)s1 [Compound 47] | < 100
CC(=O)Nc1nc(C)c(-c2ccc(S(=O)(=O)N(C)Cc3ccccc3)o2)s1 [Compound 48] | < 100
CC(=O)Nc1nc(C)c(-c2ccc(S(=O)(=O)N[C@@H](C)c3ccccc3)o2)s1 [Compound 49] | < 100
CC[C@H](NS(=O)(=O)c1ccc(-c2sc(NC(C)=O)nc2C)o1)c1ccccc1 [Compound 50] | < 100
CC(=O)Nc1nc(C)c(-c2ccc(S(=O)(=O)N[C@H](C)c3ccccc3)o2)s1 [Compound 51] | < 100
CC(=O)Nc1nc(C)c(-c2ccc(S(=O)(=O)N[C@H](CCO)c3ccccc3)o2)s1 [Compound 52] | < 100
CC(=O)Nc1nc(C)c(-c2ccc(S(=O)(=O)N[C@@H](CO)c3ccccc3)o2)s1 [Compound 53] | < 100
CC(=O)Nc1nc(C)c(-c2ccc(S(=O)(=O)NC(C)(C)c3ccccc3)o2)s1 [Compound 54] | < 100
CC(=O)Nc1nc(C)c(-c2ccc(S(=O)(=O)NCc3ccccc3Cl)o2)s1 [Compound 55] | < 100
CC(=O)Nc1nc(C)c(-c2ccc(S(=O)(=O)N[C@H]3CCc4ccccc43)o2)s1 [Compound 56] | < 100
CC(=O)Nc1nc(C)c(-c2ccc(S(=O)(=O)N[C@@H]3CCc4ccccc43)o2)s1 [Compound 57] | < 100
COc1ccccc1CNS(=O)(=O)c1ccc(-c2sc(NC(C)=O)nc2C)o1 [Compound 58] | < 100
CC(=O)Nc1nc(C)c(-c2ccc(S(=O)(=O)NCCF)o2)s1 [Compound 59] | < 100
CC(=O)Nc1nc(C)c(-c2ccc(S(=O)(=O)NCC(F)F)o2)s1 [Compound 60] | < 100
CC(=O)Nc1nc(C)c(-c2ccc(S(=O)(=O)N(C)CC(F)(F)F)o2)s1 [Compound 61] | < 100
